This assay deals with T1, hBK1 receptor (Homo sapiens, UniProt P46663).
T1 construct: expressed in transfected cells; host or cells: CHO cells (membrane homogenate)
T1 sequence (P46663 1-353): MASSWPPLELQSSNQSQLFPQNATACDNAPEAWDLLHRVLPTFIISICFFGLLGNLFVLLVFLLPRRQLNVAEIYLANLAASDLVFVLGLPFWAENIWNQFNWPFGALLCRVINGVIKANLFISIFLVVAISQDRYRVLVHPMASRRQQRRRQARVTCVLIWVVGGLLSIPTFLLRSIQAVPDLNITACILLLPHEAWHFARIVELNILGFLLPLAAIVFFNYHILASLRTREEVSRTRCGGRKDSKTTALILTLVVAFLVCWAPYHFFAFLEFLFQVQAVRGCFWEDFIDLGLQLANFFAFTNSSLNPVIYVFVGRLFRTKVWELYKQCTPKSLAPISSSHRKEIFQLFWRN
In words: hBK1 receptor binding (radioligand displacement on CHO cell membranes). The note with it: membranes of CHO cells expressing the hBK1 receptor; 0.5 to 1.0 nM [3H]-kallidin (DesArg10, Leu9); 60 minutes at room temperature. As to the method:
Description of the Method of hBK1 Receptor Binding
CHO cells expressing the hBK1 receptor are cultivated in Dulbecco's modified medium. The medium from confluent cultures is removed and the cells are washed with PBS buffer, scraped off and isolated by centrifugation. The cells are then homogenized in suspension and the homogenate is centrifuged and resuspended. The protein content is determined and the membrane preparation obtained in this manner is then frozen at −80° C. After thawing, 200 μl of the homogenate (50 to 100 μg of proteins/assay) are incubated at room temperature with 0.5 to 1.0 nM of kallidin (DesArg10, Leu9), [3,4-prolyl-3,43H(N)] and increasing concentrations of the test substance in a total volume of 250 μl for 60 minutes. The incubation is terminated by rapid filtration through GF/B glass fibre filters which had been pretreated with polyethyleneimine (0.3%). The protein-bound radioactivity is measured in a TopCount NXT. Non-specific binding is defined as radioactivity bound in the presence of 1.0 μM of […]. The concentration/binding curve is analysed using a computer-assisted nonlinear curve fitting. The Ki which corresponds to the test substance is determined using the data obtained in this manner. […]
For orientation: Displacement assays read how much labelled ligand stays bound in the presence of the test substance.

Molecules are shown by their SMILES.

A word on the Ki: it is a dissociation constant, usually derived from enzyme kinetics or from competition with a known ligand. Low values mean a stronger hold on the target, high ones a looser hold on the target.

`COc1cc(C)c(S(=O)(=O)N(C)CCOCC(=O)N(C)[C@H]2CC[C@H](OCCN(C)C)CC2)c(C)c1` [Example 1] returned a Ki of 53.6 nM.
The same measure for `COc1cc(C)c(S(=O)(=O)N(C)CCOCC(=O)N(C)[C@H]2CC[C@H](OCCN3CCCC3)CC2)c(C)c1` [Example 2]: 15 nM.
